One data set relates to E. faecalis. The following applies: cited from earlier work.
In a further data set the test system is H. influenzae. The following applies: cited from earlier work.
The nature of data set [1]: representative pharmacokinetic parameters. The data set is classed as in vivo. The following applies: Dose: Fosfomycin 3000 mg, trimethoprim 720 mg. An excerpt:
The therapeutically effective amount may be modified by pharmacokinetic, and pharmacodynamic analysis as is understood in the field. In some embodiments, the novel composition may be provided prophylactically or preventatively or protectively, which may, in some instances, be at or below a therapeutically effective amount.

The next data set has as its system bacteria. Briefly: spontaneous mutational frequency (SMF; resistance). The following applies: resistant colonies observed divided by total inoculum; plates with 4-fold MIC of the combination or 2-fold MIC of each antibiotic alone. The data set is classed as cell-based. As for the experimental part: MIC was further evaluated to confirm resistance, and the spontaneous mutational frequency was calculated based on the following equation: […]
The spontaneous mutational frequency (SMF; resistance) was calculated as the number of resistant colonies observed divided by the total inoculum.

Usually Tmax stands for the time from dosing to the highest level. With `COc1cc(Cc2cnc(N)nc2N)cc(OC)c1OC` [trimethoprim, 2,4-diamino-5-(3,4,5-trimethoxybenzyl)pyrimidine], the “MIC of co-trimoxazole, per component” value with E. faecalis is 2 µg/mL; in the data set with H. influenzae, 0.5 µg/mL. Moreover, the kel (elimination rate constant) in data set [1] is 0.08 h⁻¹. Also, in data set [1] (sulfamethoxazole 3600 mg), the Tmax is 2 h.
For `Cc1cc(NS(=O)(=O)c2ccc(N)cc2)no1` [sulfamethoxazole, N1-(5-methyl-3-isoxazolyl)sulfanilamide], the “MIC of co-trimoxazole, per component” value in the data set on E. faecalis was 38 µg/mL; with H. influenzae, at most 9.5 µg/mL.
Regarding `O=C1CN(/N=C/c2ccc([N+](=O)[O-])o2)C(=O)N1` [nitrofurantoin], in the data set with bacteria, the “frequency of spontaneous mutants resistant (spontaneous mutational frequency, SMF)” value is recorded as 3.40×10^−8.

(Values after patent publication US11925653B2, “Combination therapy effective against microorganisms, including drug resistant microorganisms” (Fleurir ABX LLC, priority 2021, dated 2024).)
